Reference: article PMC8672067, “Inhibitors of the Bub1 spindle assembly checkpoint kinase: synthesis of BAY-320 and comparison with 2OH-BNPP1” (Royal Society Open Science, 2021)

Target: T1, Bub1 (Homo sapiens, UniProt O43683)
T1 construct: full-length Bub1 with an N-terminal GFP tag (GFP-Bub1), purified from HEK-293 cells on beads
Test: in vitro kinase assay with purified GFP-Bub1 and H2A, H2ApT120 immunoblot, […] ATP
Type: biochemical

T1 sequence (O43683 whole entry): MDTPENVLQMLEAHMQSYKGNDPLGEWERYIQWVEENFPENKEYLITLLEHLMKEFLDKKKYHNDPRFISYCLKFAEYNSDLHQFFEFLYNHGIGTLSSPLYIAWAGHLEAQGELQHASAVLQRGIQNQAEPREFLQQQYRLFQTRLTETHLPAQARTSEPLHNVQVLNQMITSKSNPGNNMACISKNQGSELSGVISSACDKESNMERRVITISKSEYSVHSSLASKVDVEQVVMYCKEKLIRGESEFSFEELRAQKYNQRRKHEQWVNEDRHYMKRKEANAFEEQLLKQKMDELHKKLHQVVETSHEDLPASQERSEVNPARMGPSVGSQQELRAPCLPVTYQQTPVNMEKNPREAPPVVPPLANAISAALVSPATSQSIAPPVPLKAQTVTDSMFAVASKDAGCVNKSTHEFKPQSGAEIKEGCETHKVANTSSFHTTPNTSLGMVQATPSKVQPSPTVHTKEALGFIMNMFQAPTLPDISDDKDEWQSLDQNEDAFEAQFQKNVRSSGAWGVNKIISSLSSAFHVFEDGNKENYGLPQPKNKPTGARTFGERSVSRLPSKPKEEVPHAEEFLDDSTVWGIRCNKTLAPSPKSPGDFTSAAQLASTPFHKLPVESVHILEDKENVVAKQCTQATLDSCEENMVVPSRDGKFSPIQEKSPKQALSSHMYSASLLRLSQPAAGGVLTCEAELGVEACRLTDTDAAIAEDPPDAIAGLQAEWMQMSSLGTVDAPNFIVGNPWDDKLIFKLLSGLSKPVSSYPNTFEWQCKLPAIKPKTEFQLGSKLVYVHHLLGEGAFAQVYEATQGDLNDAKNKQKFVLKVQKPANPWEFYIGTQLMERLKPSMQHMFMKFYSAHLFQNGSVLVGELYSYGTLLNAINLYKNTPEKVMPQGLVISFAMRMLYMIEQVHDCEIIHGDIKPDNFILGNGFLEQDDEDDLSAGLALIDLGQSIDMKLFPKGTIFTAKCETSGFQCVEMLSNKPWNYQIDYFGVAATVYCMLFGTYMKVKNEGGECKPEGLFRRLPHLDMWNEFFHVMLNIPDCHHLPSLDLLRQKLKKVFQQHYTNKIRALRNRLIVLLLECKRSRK

Row | SMILES | IC50 [nM]
1 | CC(C)(C)n1nc(Cc2ccccc2O)c2c(N)ncnc21 [2OH-BNPP1] | 600
2 | CCOc1cc(F)c(Cn2nc(-c3ncc(OC)c(Nc4ccncc4)n3)c(C)c2C2CC2)c(F)c1 [compound 11, 2-[5-Cyclopropyl-1-(4-ethoxy-2,6-difluorobenzyl)-4-methyl-1H-pyrazol-3-yl]-5-methoxy-N-(pyridine-4-yl)pyrimidin-4-amine] | 560
